Common to all, as to assay type: in vivo
The subject of data set [1] is Leptochloa chinensis. Nature of the data set: Test Example 3: herbicidal effect by application to foliage (Wagner pot, water depth 0.1-0.5 cm). The note with it: Nineteenth Table; application to foliage; application herbicide amount 320 g/ha. The method, boiled down:
(§1)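 Rice-field weeds and directly sown rice were grown 14 days in flooded alluvial soil (water depth 0.1–0.5 cm) at 25–30 °C in a greenhouse. An emulsion formulation diluted to the stated g/ha rate was sprayed onto stems and leaves. Effects were scored on a 0–5 scale (herbicidal ratio bands) three weeks after treatment.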

The test system of data set [2] is Cyperus difformis. Described as above. The note with it: Nineteenth Table; application to foliage; application herbicide amount 320 g/ha. Summed up:
as §1

In data set [3] the test system is Echinochloa crus-galli var. crus-galli. The description is as above. The note with it: Nineteenth Table; application to foliage; application herbicide amount 320 g/ha. Summed up: as §1
For data set [4], the system named is Zea mays. Nature of the data set: Test Example 4: effect on crop by application to foliage (diluvial soil, plastic box). The note with it: foliage application, 320 g/ha. Summed up: (§2)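 Read-out is a 0–5 visual grade of herbicidal ratio (5: ≥90%, almost withered; 0: ≤5%) taken three weeks after treatment. Compound was applied as a diluted emulsion to stem and leaf parts of 14-day greenhouse-grown plants (25° C. to 30° C.) at rates expressed as g/ha.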

Data set [5] concerns Glycine max. The data set is described as above. The note with it: foliage application, 320 g/ha. Summed up: as §2
The test system of data set [6] is directly sowed Oryza sativa. The description is as above. The note with it: foliage application, 320 g/ha. Summed up: as §2
For data set [7], the system named is Triticum aestivum. The data set is described as above. The note with it: foliage application, 320 g/ha. The method, boiled down:
as §2

Data set [8] relates to Beta vulgaris ssp. vulgaris. The data set is described as above. The note with it: foliage application, 320 g/ha. The method, boiled down: as §2
In data set [9] the test system is Brassica campestris L. The data set is described as above. The note with it: foliage application, 320 g/ha. The method, boiled down:
as §2

Data set [10] deals with Apera spica-venti. Put plainly: Test Example 4: herbicidal effect by application to foliage (diluvial soil, plastic box). The note with it: foliage application, 320 g/ha. Summed up:
as §2

The subject of data set [11] is Stellaria media. The description is as above. The note with it: foliage application, 320 g/ha. The method, boiled down: as §2
Data set [12] deals with Alopecurus myosuroides. The data set is described as above. The note with it: foliage application, 320 g/ha. The method, boiled down: as §2
Data set [13] relates to Galium spurium. Described as above. The note with it: foliage application, 320 g/ha. Summed up:
as §2

Data set [14] has as its system Setaria viridis. The data set is described as above. The note with it: foliage application, 320 g/ha. The method, boiled down: as §2
The subject of data set [15] is Digitaria ciliaris. The data set is described as above. The note with it: foliage application, 320 g/ha. The method, boiled down:
as §2

For data set [16], the system named is Avena fatua. The data set is described as above. The note with it: foliage application, 320 g/ha. The method, boiled down:
as §2

Data set [17] has as its system Lolium multiflorum Lam. The description is as above. The note with it: foliage application, 320 g/ha. Summed up: as §2
For data set [18], the system named is Amaranthus retroflexus. Described as above. The note with it: foliage application, 320 g/ha. The method, boiled down:
as §2

Data set [19] deals with Echinochloa crus-galli var. crus-galli. Described as above. The note with it: foliage application, 320 g/ha. The method, boiled down: as §2
The subject of data set [20] is Chenopodium album. The description is as above. The note with it: foliage application, 320 g/ha. Summed up:
as §2

For data set [21], the system named is Abutilon theophrasti. Described as above. The note with it: foliage application, 320 g/ha. The method, boiled down:
as §2

Experimental findings from patent publication US9708314B2, “Heterocyclic amide compound” (NISSAN CHEMICAL INDUSTRIES, LTD., priority 2013, dated 2017) are described below.

For the compound `CC(c1nnc2c(C(=O)Nc3nnnn3C)ccc(C(F)(F)F)n12)[S+](C)[O-]` (stereo not drawn) [2-053], the “D (herbicidal effect grade)” value in data set [1] is 5 (Herbicidal ratio of 90% or more (almost completely withered)). For the same compound, the “E (herbicidal effect grade)” value in data set [2] is recorded as 5 (Herbicidal ratio of 90% or more (almost completely withered)). Also, the “H (herbicidal effect grade)” value in [3] was 5 (Herbicidal ratio of 90% or more (almost completely withered)). For the same compound, the “b (Zea mays) effect on crop grade” value in data set [4] is recorded as 5 (Herbicidal ratio of 90% or more (almost completely withered)). Moreover, in data set [5], the “c (Glycine max) effect on crop grade” value is 4 (Herbicidal ratio of 70% or more and less than 90%). Further, in [6], the “d (directly sowed Oryza sativa) effect on crop grade” value is listed as 5 (Herbicidal ratio of 90% or more (almost completely withered)). Further, in data set [7], the “e (Triticum aestivum) effect on crop grade” value (from here on “e (Triticum aestivum) effect”) is 5 (Herbicidal ratio of 90% or more (almost completely withered)). Further, in data set [8], the “f (Beta vulgaris ssp. vulgaris) effect on crop grade” value was 5 (Herbicidal ratio of 90% or more (almost completely withered)). Further, in data set [9], the “g (Brassica campestris L.) effect on crop grade” value is 5 (Herbicidal ratio of 90% or more (almost completely withered)). Also, in data set [10], the “L (Apera spica-venti.) herbicidal effect grade” value is 5 (Herbicidal ratio of 90% or more (almost completely withered)). In [11], the “P (Stellaria media) herbicidal effect grade” value was 5 (Herbicidal ratio of 90% or more (almost completely withered)). For the same compound, in data set [12], the “J (Alopecurus myosuroides) herbicidal effect grade” value is given as 5 (Herbicidal ratio of 90% or more (almost completely withered)). In [13], the “Q (Galium spurium) herbicidal effect grade” value is reported as 5 (Herbicidal ratio of 90% or more (almost completely withered)). Moreover, the “G (Setaria viridis) herbicidal effect grade” value in data set [14] is given as 5 (Herbicidal ratio of 90% or more (almost completely withered)). For the same compound, the “F (Digitaria ciliaris) herbicidal effect grade” value in [15] is 5 (Herbicidal ratio of 90% or more (almost completely withered)). Besides, in data set [16], the “I (Avena fatua) herbicidal effect grade” value is reported as 5 (Herbicidal ratio of 90% or more (almost completely withered)). The “K (Lolium multiflorum Lam.) herbicidal effect grade” value in data set [17] is 4 (Herbicidal ratio of 70% or more and less than 90%). For the same compound, the “N (Amaranthus retroflexus) herbicidal effect grade” value in [18] is 5 (Herbicidal ratio of 90% or more (almost completely withered)). Also, in [19], the “H (Echinochloa crus-galli var. crus-galli) herbicidal effect grade” value is 5 (Herbicidal ratio of 90% or more (almost completely withered)). Moreover, in [20], the “O (Chenopodium album) herbicidal effect grade” value is given as 5 (Herbicidal ratio of 90% or more (almost completely withered)). For the same compound, in data set [21], the “M (Abutilon theophrasti) herbicidal effect grade” value is 5 (Herbicidal ratio of 90% or more (almost completely withered)).

Regarding `CSCCn1nnnc1NC(=O)c1ccc(C(F)(F)F)n2c(C(C)C)nnc12` [2-048], the “D (herbicidal effect grade)” value in [1] is on record as 5 (Herbicidal ratio of 90% or more (almost completely withered)). The “E (herbicidal effect grade)” value in [2] is on record as 5 (Herbicidal ratio of 90% or more (almost completely withered)). For the same compound, in data set [3], the “H (herbicidal effect grade)” value was 5 (Herbicidal ratio of 90% or more (almost completely withered)). Also, the “b (Zea mays) effect on crop grade” value in [4] was 4 (Herbicidal ratio of 70% or more and less than 90%). Also, in data set [5], the “c (Glycine max) effect on crop grade” value is 4 (Herbicidal ratio of 70% or more and less than 90%). In data set [6], the “d (directly sowed Oryza sativa) effect on crop grade” value is on record as 5 (Herbicidal ratio of 90% or more (almost completely withered)). Also, the “e (Triticum aestivum) effect” value in data set [7] is 4 (Herbicidal ratio of 70% or more and less than 90%). Moreover, the “f (Beta vulgaris ssp. vulgaris) effect on crop grade” value in [8] is on record as 5 (Herbicidal ratio of 90% or more (almost completely withered)). Also, in [9], the “g (Brassica campestris L.) effect on crop grade” value is reported as 5 (Herbicidal ratio of 90% or more (almost completely withered)). In addition, in [10], the “L (Apera spica-venti.) herbicidal effect grade” value is 4 (Herbicidal ratio of 70% or more and less than 90%). In data set [11], the “P (Stellaria media) herbicidal effect grade” value was 4 (Herbicidal ratio of 70% or more and less than 90%). Also, the “J (Alopecurus myosuroides) herbicidal effect grade” value in data set [12] is 3 (Herbicidal ratio of 40% or more and less than 70%). Further, the “Q (Galium spurium) herbicidal effect grade” value in [13] is 4 (Herbicidal ratio of 70% or more and less than 90%). Also, the “G (Setaria viridis) herbicidal effect grade” value in [14] is 5 (Herbicidal ratio of 90% or more (almost completely withered)). Besides, the “F (Digitaria ciliaris) herbicidal effect grade” value in data set [15] is given as 5 (Herbicidal ratio of 90% or more (almost completely withered)). For the same compound, the “I (Avena fatua) herbicidal effect grade” value in [16] was 4 (Herbicidal ratio of 70% or more and less than 90%). Also, the “K (Lolium multiflorum Lam.) herbicidal effect grade” value in data set [17] is 4 (Herbicidal ratio of 70% or more and less than 90%). In addition, the “N (Amaranthus retroflexus) herbicidal effect grade” value in data set [18] is 5 (Herbicidal ratio of 90% or more (almost completely withered)). For the same compound, the “H (Echinochloa crus-galli var. crus-galli) herbicidal effect grade” value in data set [19] is recorded as 5 (Herbicidal ratio of 90% or more (almost completely withered)). In data set [20], the “O (Chenopodium album) herbicidal effect grade” value is listed as 5 (Herbicidal ratio of 90% or more (almost completely withered)). For the same compound, the “M (Abutilon theophrasti) herbicidal effect grade” value in [21] is 5 (Herbicidal ratio of 90% or more (almost completely withered)).

With `CC(c1nnc2c(C(=O)Nc3nnnn3C)ccc(C(F)(F)F)n12)S(C)(=O)=O` (stereo not drawn) [2-054], in [1], the “D (herbicidal effect grade)” value is 5 (Herbicidal ratio of 90% or more (almost completely withered)). Moreover, in data set [2], the “E (herbicidal effect grade)” value is 5 (Herbicidal ratio of 90% or more (almost completely withered)). In [3], the “H (herbicidal effect grade)” value is on record as 5 (Herbicidal ratio of 90% or more (almost completely withered)). The “b (Zea mays) effect on crop grade” value in data set [4] is given as 5 (Herbicidal ratio of 90% or more (almost completely withered)). In [5], the “c (Glycine max) effect on crop grade” value is 5 (Herbicidal ratio of 90% or more (almost completely withered)). Moreover, the “d (directly sowed Oryza sativa) effect on crop grade” value in data set [6] is 5 (Herbicidal ratio of 90% or more (almost completely withered)). Besides, in data set [7], the “e (Triticum aestivum) effect” value is reported as 5 (Herbicidal ratio of 90% or more (almost completely withered)). The “f (Beta vulgaris ssp. vulgaris) effect on crop grade” value in data set [8] is 5 (Herbicidal ratio of 90% or more (almost completely withered)). In addition, in [9], the “g (Brassica campestris L.) effect on crop grade” value is given as 5 (Herbicidal ratio of 90% or more (almost completely withered)). For the same compound, in data set [10], the “L (Apera spica-venti.) herbicidal effect grade” value is listed as 5 (Herbicidal ratio of 90% or more (almost completely withered)). For the same compound, the “P (Stellaria media) herbicidal effect grade” value in data set [11] is given as 5 (Herbicidal ratio of 90% or more (almost completely withered)). In [12], the “J (Alopecurus myosuroides) herbicidal effect grade” value was 4 (Herbicidal ratio of 70% or more and less than 90%). The “Q (Galium spurium) herbicidal effect grade” value in data set [13] is 4 (Herbicidal ratio of 70% or more and less than 90%). Moreover, the “G (Setaria viridis) herbicidal effect grade” value in data set [14] was 5 (Herbicidal ratio of 90% or more (almost completely withered)). In [15], the “F (Digitaria ciliaris) herbicidal effect grade” value was 5 (Herbicidal ratio of 90% or more (almost completely withered)). In addition, the “I (Avena fatua) herbicidal effect grade” value in data set [16] is on record as 5 (Herbicidal ratio of 90% or more (almost completely withered)). Moreover, the “K (Lolium multiflorum Lam.) herbicidal effect grade” value in data set [17] was 5 (Herbicidal ratio of 90% or more (almost completely withered)). In addition, the “N (Amaranthus retroflexus) herbicidal effect grade” value in data set [18] is on record as 5 (Herbicidal ratio of 90% or more (almost completely withered)). The “H (Echinochloa crus-galli var. crus-galli) herbicidal effect grade” value in data set [19] was 5 (Herbicidal ratio of 90% or more (almost completely withered)). The “O (Chenopodium album) herbicidal effect grade” value in data set [20] is reported as 5 (Herbicidal ratio of 90% or more (almost completely withered)). In addition, the “M (Abutilon theophrasti) herbicidal effect grade” value in data set [21] is 5 (Herbicidal ratio of 90% or more (almost completely withered)).
